We go through two compounds from patent US7399319B2, “Dyeing composition comprising a dye chosen from styryl and imine dyes and methods for dyeing keratin fibers” (L'Oreal S.A., priority 2005, dated 2008).

The data set can be described thus: Shampoo-fastness test on dyed locks. As for the experimental part: A shampoo-fastness test was performed on the locks of hair dyed with dyes 1 and 2 obtained under the conditions described above. The dyed locks were subjected to 20 shampoo washes according to a cycle comprising wetting the locks with water, washing with shampoo, rinsing with water, and then drying.
The degradation of the color after x shampoo washes was estimated according to the following formula:
[formula] [formula] [formula] [formula] [formula] wherein a*ctrl, b*ctrl, and L*ctrl are the values of a*, b*, and L* of the non-dyed lock; a*dyed, b*dyed, and L*dyed are the values of a*, b*, and L* of the dyed lock before shampooing, whereas a*xSh, b*xSh, and L*xSh are the values of a*, b*, and L* of the dyed lock after x shampoo washes.

The mark [1] stands for this setting: permanent-waved lock, after 5 shampoo washes.
[2] abbreviates: permanent-waved lock, after 12 shampoo washes.
[3] abbreviates: permanent-waved lock, after 18 shampoo washes.
Setting [4] is: permanent-waved lock, after 20 shampoo washes.

Consider `CN(C)c1ccc(C=CC23OCCN2c2ccccc2C3(C)C)cc1` (stereo not drawn) [Dye 1], for which the “% degradation” value under setting [1] came to 10%, the “% degradation” value under setting [2] is recorded as 17%, the “% degradation” value under setting [3] was 18% and the “% degradation” value under setting [4] worked out at 24%.
With `CN(C)c1ccc(C=CC=CC23OCCN2c2ccccc2C3(C)C)cc1` (stereo not drawn) [Dye 2], the “% degradation” value is 4% (natural lock, after 5 shampoo washes); 14% (natural lock, after 12 shampoo washes); 18% (natural lock, after 18 shampoo washes); 20% (natural lock, after 20 shampoo washes); 6% under setting [1]; 6% under setting [2]. Further, the “% degradation” value by setting is: under setting [3], 7%; under setting [4], 11%.
